Key:
EGFR (ErbB1) T790M L858R = EGFR (ErbB1) T790M L858R (Homo sapiens (Human), UniProt P00533, L858R/T790M); test: Z'-LYTE kinase inhibition assay, EGFR L858R/T790M; type: biochemical; conditions: for inhibition at 1 µM: read-out: % inhibition against EGFR L858R/T790M (Compound at 1 μM); for IC50: read-out: IC50 against EGFR L858R/T790M; for inhibition at 0.0137 µM: read-out: % inhibition against EGFR L858R/T790M (Compound at 0.0137 μM)
Summary of the method: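 IC50 taken from 10-point, 3-fold serial dilutions tested in 1% DMSO. The mutant kinase and peptide were prepared in HEPES pH 6.5 buffer with BRIJ-35, MgCl2, EGTA and NaN3, then reacted with ATP for 1 h at room temperature. Development reagent was added for a further hour before the fluorescence readout.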

FGFR1 = FGFR1 (Homo sapiens (Human), UniProt P11362); test: Z'-LYTE kinase inhibition assay, FGFR1; type: biochemical; conditions: compound at 0.041 μM; read-out: % inhibition against FGFR1
Method: (§1) Inhibitory activities of compounds against BTK, EGFR and EGFR mutants (EGFR L858R, EGFR T790M, EGFR L858R/T790M), FGFR1, FGFR2, JAK2, JAK3 and KDR were measured by Invitrogen using Z'-LYTE® Method as briefly described in the following.
(§2) Test Compounds are screened in 1% DMSO (final) in the well. For 10 point titrations, 3-fold serial dilutions are conducted from the starting concentration. All ATP Solutions are diluted to a 4× working concentration in Kinase Buffer (50 mM HEPES pH 7.5, 0.01% BRIJ-35, 10 mM MgCl2, 1 mM EGTA). Peptide/Kinase Mixtures are diluted to a 2× working concentration in the appropriate Kinase Buffers as described below.
(v) Peptide/Kinase Mixtures for Measurement of FGFR1:
The 2×FGFR1/Tyr 04 mixture is prepared in 50 mM HEPES pH 7.5, 0.01% BRIJ-35, 10 mM MgCl2, 4 mM MnCl2, 1 mM EGTA, 2 mM DTT. The final 10 μL Kinase Reaction consists of 0.41-3.5 ng FGFR1 and 2 μM Tyr 04 in 50 mM HEPES pH 7.5, 0.01% BRIJ-35, 10 mM MgCl2, 2 mM MnCl2, 1 mM EGTA, 1 mM DTT. After the 1 hour Kinase Reaction incubation, 5 μL of a 1:64 dilution of Development Reagent B is added.
(§3) Reaction starts by 30-second shaking of mixture consisting of 2.5 μL 4× test compound, […] 2× kinase reaction mixture and 2.5 μL 4×ATP Solution on Bar-coded Corning, low volume NBS, black 384-well plate (Corning Cat. #3676). Then the mixture is incubated for 60-minute at room temperature for the kinase reaction, followed by addition of 5 μL of a 1:1024 dilution of development reagent A and 30-second plate shake. The mixture is then incubated for another 60-minute at room temperature for development reaction. Finally fluorescence is read by plate reader.
To determine IC50 of a compound against EGFR, EGFR mutant and other kinases, a series of concentrations of the compound were tested for the inhibition. […] The scale utilized in Table 4 is as follows: +++ less than 100 nM, ++ 100-500 nM and + greater than 500 nM.

HCC827 cells = test: cells; conditions: Homo sapiens, HCC827, 72 h, read-out: IC50 in HCC827 cells
Method: (§4) Taxol (as a positive control. Sigma) and compounds were dissolved in DMSO (Sigma), and the final concentration of DMSO in the medium was 1%. Tumor cells were plated in 96-well plates at densities of about 4000 cells/well of a 96-well plate and allowed to adhere/grow for 24 h. They were then treated with various concentrations of drug for 72 h, 3-(4,5-Dimethylthiazol-2-yl)-2,5-diphenyltetrazolium bromide (MTT, Sigma) was used to determine the number of viable cells at the time of compound addition and the number of cells remaining after 72 h compound exposure. The number of cells remaining after 72 h was compared to the number of viable cells at the time of compound addition by measuring the absorbance at 570 nm, allowing for the calculation of growth inhibition.
(§5) All concentrations of compounds were tested in triplicate and controls were averaged over 4 wells. IC50 was calculated by plotting the concentration of compound vs the percentage of inhibition in treated wells using GraphPad Prism 5.
(§6) The scale utilized in Tables 5 is as follows: +++ less than 100 nM; ++ between 100 nM and 500 nM; and + greater than 500 nM.

BTK = BTK (Homo sapiens (Human), UniProt Q06187); test: Z'-LYTE kinase inhibition assay, BTK; type: biochemical; conditions: for inhibition at 0.041 µM: compound at 0.041 μM, read-out: % inhibition against BTK; for IC50: read-out: IC50 against BTK
Summary of the method: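 Z'-LYTE FRET assay with Tyr 01 peptide in 50 mM HEPES pH 7.5, 10 mM MgCl2, 1 mM EGTA, 0.01% BRIJ-35. Compounds in 1% DMSO were tested as 10-point, 3-fold titrations.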

H1975 cells = test: Inhibition of cancer cell growth, MTT assay, H1975; conditions: Homo sapiens, NCI-H1975, 72 h, read-out: IC50 in H1975 cells
Method: (§7) Inhibition of cell growth by compounds was measured using MTT assay (Mosmann, T., Journal of Immunological Methods, 1983, 65, 55-63). Tumor cell lines were purchased from ATCC (American Type Culture Collection, Manassas, Va.). All cell lines were maintained in RPMI 1640 (Hyclone) supplemented with 10% fetal bovine serum (FBS, Hyclone), glutamine (2 mM, Hyclone), and antibiotics (penicillin 100 U/mL and streptomycin 50 μg/mL) at 37° C. in a humidified atmosphere of 5% CO2 in air. Taxol (as a positive control. Sigma) and compounds were dissolved in DMSO (Sigma), and the final concentration of DMSO in the medium was 1%. Tumor cells were plated in 96-well plates at densities of about 4000 cells/well of a 96-well plate and allowed to adhere/grow for 24 h. They were then treated with various concentrations of drug for 72 h, 3-(4,5-Dimethylthiazol-2-yl)-2,5-diphenyltetrazolium bromide (MTT, Sigma) was used to determine the number of viable cells at the time of compound addition and the number of cells remaining after 72 h compound exposure. The number of cells remaining after 72 h was compared to the number of viable cells at the time of compound addition by measuring the absorbance at 570 nm, allowing for the calculation of growth inhibition.
as §5

JAK2 = JAK2 (Homo sapiens (Human), UniProt O60674); test: Z'-LYTE kinase inhibition assay, JAK2; type: biochemical; conditions: compound at 0.041 μM; read-out: % inhibition against JAK2
Method: as §1, §2
(v) Peptide/Kinase Mixtures for Measurement of JAK2:
The 2×JAK2/Tyr 06 mixture is prepared in 50 mM HEPES pH 7.5, 0.01% BRIJ-35, 10 mM MgCl2, 1 mM EGTA. The final 10 μL Kinase Reaction consists of 0.06-0.81 ng JAK2 and 2 μM Tyr 06 in 50 mM HEPES pH 7.5, 0.01% BRIJ-35, 10 mM MgCl2, 1 mM EGTA. After the 1 hour Kinase Reaction incubation, 5 μL of a 1:64 dilution of Development Reagent A is added.
as §3

EGFR (ErbB1) = EGFR (ErbB1) (Homo sapiens (Human), UniProt P00533); test: Z'-LYTE kinase inhibition assay, EGFR; type: biochemical; conditions: for inhibition at 1 µM: read-out: % inhibition against EGFR (Compound at 1 μM); for inhibition at 0.041 µM: read-out: % inhibition against EGFR (Compound at 0.041 μM); for IC50: read-out: IC50 against EGFR
Summary of the method: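 IC50 values derived from 10-point, 3-fold compound dilution series (1% DMSO final) using Z'-LYTE fluorescence readout after 60-min development. Reaction: EGFR (1.1-5.25 ng) with 2 μM peptide, 60 min at room temperature in HEPES pH 7.5 buffer containing MgCl2, MnCl2, EGTA, DTT and BRIJ-35.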

H1299 cells = test: Inhibition of cancer cell growth, MTT assay, H1299; conditions: Homo sapiens, NCI-H1299, 72 h, read-out: IC50 in H1299 cells
Method: as §7, §5

A431 cells = test: cells; conditions: Homo sapiens, A-431, 72 h, read-out: IC50 in A431 cells
Method: as §4, §5, §6

H3255 cells = test: Inhibition of cancer cell growth, MTT assay, H3255; conditions: Homo sapiens, NCI-H3255, 72 h, read-out: IC50 in H3255 cells
Method: as §7, §5

JAK2, sequence (O60674 whole entry): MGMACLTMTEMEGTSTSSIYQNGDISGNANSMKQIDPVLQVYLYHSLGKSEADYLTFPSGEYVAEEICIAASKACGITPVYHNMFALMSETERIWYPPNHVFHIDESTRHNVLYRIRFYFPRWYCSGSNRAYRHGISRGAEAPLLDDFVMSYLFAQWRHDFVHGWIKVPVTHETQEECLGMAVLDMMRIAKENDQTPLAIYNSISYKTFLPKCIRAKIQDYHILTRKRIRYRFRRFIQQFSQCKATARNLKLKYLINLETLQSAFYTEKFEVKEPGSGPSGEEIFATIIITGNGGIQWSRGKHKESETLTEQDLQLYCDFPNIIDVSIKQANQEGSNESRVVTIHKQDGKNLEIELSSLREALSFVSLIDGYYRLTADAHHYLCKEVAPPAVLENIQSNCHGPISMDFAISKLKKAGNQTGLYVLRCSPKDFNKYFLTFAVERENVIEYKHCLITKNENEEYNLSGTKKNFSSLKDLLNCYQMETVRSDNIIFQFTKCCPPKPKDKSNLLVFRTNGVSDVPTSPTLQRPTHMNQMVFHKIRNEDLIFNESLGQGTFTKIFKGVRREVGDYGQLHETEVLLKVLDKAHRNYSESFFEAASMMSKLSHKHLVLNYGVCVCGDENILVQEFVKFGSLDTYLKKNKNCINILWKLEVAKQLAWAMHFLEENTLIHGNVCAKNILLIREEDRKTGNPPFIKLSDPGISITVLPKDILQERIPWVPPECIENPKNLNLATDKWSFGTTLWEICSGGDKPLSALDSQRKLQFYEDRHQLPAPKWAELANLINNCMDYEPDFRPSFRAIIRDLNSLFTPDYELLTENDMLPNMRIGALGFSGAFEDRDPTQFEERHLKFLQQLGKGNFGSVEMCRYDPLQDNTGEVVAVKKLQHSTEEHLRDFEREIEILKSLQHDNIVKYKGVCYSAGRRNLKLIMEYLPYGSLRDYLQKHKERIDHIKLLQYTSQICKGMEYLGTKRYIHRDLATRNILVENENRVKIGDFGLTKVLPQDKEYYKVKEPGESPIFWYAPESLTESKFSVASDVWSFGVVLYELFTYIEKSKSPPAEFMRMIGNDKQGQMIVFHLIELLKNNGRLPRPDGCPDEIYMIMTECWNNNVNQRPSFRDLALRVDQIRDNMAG
BTK, sequence (Q06187 whole entry): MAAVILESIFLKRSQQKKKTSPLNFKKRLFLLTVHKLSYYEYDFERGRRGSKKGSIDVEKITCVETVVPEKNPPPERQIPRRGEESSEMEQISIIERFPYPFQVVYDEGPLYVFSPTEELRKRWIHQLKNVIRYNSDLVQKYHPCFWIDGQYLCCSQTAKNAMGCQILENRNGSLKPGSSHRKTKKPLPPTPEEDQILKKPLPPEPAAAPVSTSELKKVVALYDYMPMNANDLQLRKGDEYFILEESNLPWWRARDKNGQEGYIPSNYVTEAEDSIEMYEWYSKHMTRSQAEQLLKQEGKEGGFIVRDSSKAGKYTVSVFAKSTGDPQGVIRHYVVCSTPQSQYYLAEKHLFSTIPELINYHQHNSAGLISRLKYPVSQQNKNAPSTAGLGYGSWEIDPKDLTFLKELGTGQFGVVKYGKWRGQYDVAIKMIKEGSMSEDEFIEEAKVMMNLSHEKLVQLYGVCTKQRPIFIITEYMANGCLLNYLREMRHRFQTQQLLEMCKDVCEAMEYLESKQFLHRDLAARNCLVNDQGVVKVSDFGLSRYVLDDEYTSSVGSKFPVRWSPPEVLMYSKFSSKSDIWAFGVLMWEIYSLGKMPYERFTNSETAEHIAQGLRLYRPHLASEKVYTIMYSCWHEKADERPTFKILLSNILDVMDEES
EGFR (ErbB1), sequence (P00533 25-1210): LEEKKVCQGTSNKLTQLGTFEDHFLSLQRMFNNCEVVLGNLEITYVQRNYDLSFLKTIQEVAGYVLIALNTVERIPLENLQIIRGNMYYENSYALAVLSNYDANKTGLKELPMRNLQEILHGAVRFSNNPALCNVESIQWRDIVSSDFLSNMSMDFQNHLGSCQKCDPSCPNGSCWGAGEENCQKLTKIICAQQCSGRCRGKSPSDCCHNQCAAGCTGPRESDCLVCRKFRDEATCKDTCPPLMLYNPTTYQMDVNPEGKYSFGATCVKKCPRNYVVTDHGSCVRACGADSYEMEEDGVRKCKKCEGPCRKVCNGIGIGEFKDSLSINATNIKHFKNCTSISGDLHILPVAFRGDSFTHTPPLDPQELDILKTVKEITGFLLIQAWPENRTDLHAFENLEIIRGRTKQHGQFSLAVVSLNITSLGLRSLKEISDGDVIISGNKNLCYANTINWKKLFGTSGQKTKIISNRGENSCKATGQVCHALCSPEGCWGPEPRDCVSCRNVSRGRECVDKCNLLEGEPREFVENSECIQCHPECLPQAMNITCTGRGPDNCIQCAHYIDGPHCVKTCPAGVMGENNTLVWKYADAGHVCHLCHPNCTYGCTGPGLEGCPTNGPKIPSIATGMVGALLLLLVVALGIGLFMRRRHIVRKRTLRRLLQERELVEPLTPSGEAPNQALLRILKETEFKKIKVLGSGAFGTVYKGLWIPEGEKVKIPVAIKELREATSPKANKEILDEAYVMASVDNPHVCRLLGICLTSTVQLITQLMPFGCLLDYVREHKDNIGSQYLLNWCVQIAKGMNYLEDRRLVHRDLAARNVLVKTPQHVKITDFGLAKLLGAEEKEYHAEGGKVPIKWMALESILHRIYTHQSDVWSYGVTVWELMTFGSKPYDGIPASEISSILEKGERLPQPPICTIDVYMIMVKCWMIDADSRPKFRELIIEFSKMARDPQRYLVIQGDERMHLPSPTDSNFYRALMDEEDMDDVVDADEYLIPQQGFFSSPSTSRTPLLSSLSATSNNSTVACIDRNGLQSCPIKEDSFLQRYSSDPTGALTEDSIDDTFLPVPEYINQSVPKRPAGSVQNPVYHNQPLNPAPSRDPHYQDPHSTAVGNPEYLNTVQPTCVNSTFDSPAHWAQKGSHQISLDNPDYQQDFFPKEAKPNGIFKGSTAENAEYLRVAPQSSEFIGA
EGFR (ErbB1) T790M L858R, sequence (P00533 25-1210 T790M/L858R): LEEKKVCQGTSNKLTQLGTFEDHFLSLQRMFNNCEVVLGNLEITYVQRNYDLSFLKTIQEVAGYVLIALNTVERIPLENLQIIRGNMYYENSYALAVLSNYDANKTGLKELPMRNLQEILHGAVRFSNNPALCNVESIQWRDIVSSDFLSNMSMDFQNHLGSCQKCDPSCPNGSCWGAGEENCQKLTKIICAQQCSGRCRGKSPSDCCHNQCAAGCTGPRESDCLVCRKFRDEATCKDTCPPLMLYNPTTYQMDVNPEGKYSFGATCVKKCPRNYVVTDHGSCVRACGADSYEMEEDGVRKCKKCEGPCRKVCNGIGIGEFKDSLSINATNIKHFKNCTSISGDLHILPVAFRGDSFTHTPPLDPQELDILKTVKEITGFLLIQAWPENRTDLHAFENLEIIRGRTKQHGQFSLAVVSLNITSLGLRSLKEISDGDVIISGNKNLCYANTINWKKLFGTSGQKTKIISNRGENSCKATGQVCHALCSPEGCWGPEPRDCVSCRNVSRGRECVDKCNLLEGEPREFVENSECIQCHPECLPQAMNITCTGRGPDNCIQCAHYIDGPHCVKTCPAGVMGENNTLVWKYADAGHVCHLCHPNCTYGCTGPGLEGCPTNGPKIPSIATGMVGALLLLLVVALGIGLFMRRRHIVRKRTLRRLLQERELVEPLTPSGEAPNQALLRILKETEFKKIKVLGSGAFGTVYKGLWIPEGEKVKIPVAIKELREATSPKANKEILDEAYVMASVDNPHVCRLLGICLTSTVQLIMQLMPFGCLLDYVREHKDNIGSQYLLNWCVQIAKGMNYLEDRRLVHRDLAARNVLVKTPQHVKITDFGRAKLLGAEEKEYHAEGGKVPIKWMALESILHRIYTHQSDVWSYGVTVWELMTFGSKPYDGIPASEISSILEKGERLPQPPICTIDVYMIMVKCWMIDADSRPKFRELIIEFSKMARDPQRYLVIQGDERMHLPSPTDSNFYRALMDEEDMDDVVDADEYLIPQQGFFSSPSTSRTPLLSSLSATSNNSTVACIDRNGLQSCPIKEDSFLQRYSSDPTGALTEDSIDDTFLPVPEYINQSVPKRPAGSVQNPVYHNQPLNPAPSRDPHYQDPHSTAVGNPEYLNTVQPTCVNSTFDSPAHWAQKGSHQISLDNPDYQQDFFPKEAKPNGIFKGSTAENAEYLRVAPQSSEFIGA
FGFR1, sequence (P11362 22-822): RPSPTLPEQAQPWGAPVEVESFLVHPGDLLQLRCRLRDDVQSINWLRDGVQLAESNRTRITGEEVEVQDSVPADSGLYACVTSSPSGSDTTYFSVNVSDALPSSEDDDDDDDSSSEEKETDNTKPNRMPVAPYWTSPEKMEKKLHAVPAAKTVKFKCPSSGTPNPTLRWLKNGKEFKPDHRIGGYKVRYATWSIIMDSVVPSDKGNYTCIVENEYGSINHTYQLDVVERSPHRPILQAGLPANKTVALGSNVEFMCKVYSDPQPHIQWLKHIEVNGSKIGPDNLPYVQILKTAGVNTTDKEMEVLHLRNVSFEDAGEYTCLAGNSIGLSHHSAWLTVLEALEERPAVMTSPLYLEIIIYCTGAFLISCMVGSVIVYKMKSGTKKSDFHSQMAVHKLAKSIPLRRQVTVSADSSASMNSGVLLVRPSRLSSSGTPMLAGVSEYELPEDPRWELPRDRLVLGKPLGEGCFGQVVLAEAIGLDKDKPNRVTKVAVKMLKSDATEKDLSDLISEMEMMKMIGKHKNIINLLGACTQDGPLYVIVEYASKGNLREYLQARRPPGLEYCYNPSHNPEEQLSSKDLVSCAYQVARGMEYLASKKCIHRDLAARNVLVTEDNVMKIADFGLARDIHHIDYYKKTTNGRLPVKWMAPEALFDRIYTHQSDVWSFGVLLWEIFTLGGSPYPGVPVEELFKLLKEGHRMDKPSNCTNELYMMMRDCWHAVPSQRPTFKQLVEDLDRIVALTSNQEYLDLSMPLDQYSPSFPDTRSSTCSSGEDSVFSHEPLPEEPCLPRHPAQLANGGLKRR

| Structure (SMILES) | inhibition at 1 µM (EGFR (ErbB1) T790M L858R) [%] | inhibition at 0.041 µM (FGFR1) [%] | IC50 (HCC827 cells) [nM] | inhibition at 0.041 µM (BTK) [%] | IC50 (H1975 cells) [nM] | inhibition at 0.041 µM (JAK2) [%] | inhibition at 1 µM (EGFR (ErbB1)) [%] | IC50 (EGFR (ErbB1) T790M L858R) [nM] | IC50 (H1299 cells) [nM] | IC50 (A431 cells) [nM] | inhibition at 0.041 µM (EGFR (ErbB1)) [%] | IC50 (EGFR (ErbB1)) [nM] | inhibition at 0.0137 µM (EGFR (ErbB1) T790M L858R) [%] | IC50 (H3255 cells) [nM] | IC50 (BTK) [nM] |
| --- | --- | --- | --- | --- | --- | --- | --- | --- | --- | --- | --- | --- | --- | --- | --- |
| CC(=O)Nc1cccc(-c2cccc3cnc(Nc4ccc(N5CCN(C)CC5)cc4)nc23)c1 [Example C022, N-(3-(2-((4-(4-methylpiperazin-1-yl)phenyl)amino)quinazolin-8-yl)phenyl)acetamide] | > 50 | > 50 | < 100 | > 50 | > 500 | > 50 |  |  |  |  |  |  |  |  |  |
| Fc1ccc(OCCN2CCOCC2)cc1-c1cccc2cnc(Nc3ccc(N4CCOCC4)cc3)nc12 [Example C023, 8-(2-fluoro-5-(2-morpholinoethoxy)phenyl)-N-(4-morpholinophenyl)quinazolin-2-amine] | < 50 | < 50 | > 500 | < 50 | > 500 | < 50 | < 50 |  |  |  |  |  |  |  |  |
| Clc1ccccc1-c1cccc2cnc(Nc3ccc(N4CCNCC4)cc3)nc12 [Example C026, 8-(2-chlorophenyl)-N-(4-(piperazin-1-yl)phenyl)quinazolin-2-amine] | > 50 | > 50 | > 500 | < 50 | > 500 | > 50 |  |  |  |  |  |  |  |  |  |
| C=CC(=O)Nc1cccc(-c2cccc3cnc(Nc4ccc(N5CCN(C(C)=O)CC5)cc4)nc23)c1 [Example C032, N-(3-(2-((4-(4-acetylpiperazin-1-yl)phenyl)amino)quinazolin-8-yl)phenyl)acrylamide] |  |  | < 100 | > 50 | 100 to 500 | > 50 | > 50 | < 100 | > 500 | 100 to 500 |  |  |  |  |  |
| C=CC(=O)Nc1cccc(-c2c(C)ccc3cnc(Nc4ccc(N5CCOCC5)cc4)nc23)c1 [Example C033, N-(3-(7-methyl-2-((4-morpholinophenyl)amino)quinazolin-8-yl)phenyl)acrylamide] | > 50 |  | < 100 | > 50 | 100 to 500 | < 50 | > 50 |  | > 500 |  |  |  |  |  |  |
| C=CC(=O)Nc1cccc(-c2cccc3cnc(Nc4ccc(N5CCN(C(C)=O)CC5)nc4)nc23)c1 [Example C036, N-(3-(2-((6-(4-acetylpiperazin-1-yl)pyridin-3-yl)amino)quinazolin-8-yl)phenyl)acrylamide] |  | < 50 | < 100 |  | > 500 |  |  |  | > 500 |  |  |  |  |  |  |
| C=CC(=O)Nc1cncc(-c2cccc3cnc(Nc4ccc(N5CCN(C)CC5)cc4)nc23)c1 [Example C040, N-(5-(2-((4-(4-methylpiperazin-1-yl)phenyl)amino)quinazolin-8-yl)pyridin-3-yl)acrylamide] |  |  | < 100 | > 50 | < 100 | < 50 |  | < 100 | 100 to 500 | 100 to 500 | > 50 | < 100 |  |  |  |
| C=CC(=O)Nc1cccc(-c2cccc3cnc(Nc4ccc(N5CCN(C)CC5)cc4)nc23)c1Cl [Example C054, N-(2-chloro-3-(2-((4-(4-methylpiperazin-1-yl)phenyl)amino)quinazolin-8-yl)phenyl)acrylamide] |  |  |  | > 50 | 100 to 500 | > 50 |  | < 100 |  | > 500 | > 50 |  | > 50 |  |  |
| C=CC(=O)Nc1cccc(-c2cccc3cnc(Nc4ccc(N5CCN(C)CC5)nc4OC)nc23)c1 [Example C055, N-(3-(2-((2-methoxy-6-(4-methylpiperazin-1-yl)pyridin-3-yl)amino)quinazolin-8-yl)phenyl)acrylamide] |  |  |  | < 50 | 100 to 500 | < 50 |  |  |  | 100 to 500 | < 50 |  | > 50 |  |  |
| C=CC(=O)Nc1cccc(-c2cccc3cnc(Nc4ccc(N5CCN(C)CC5)c(C(N)=O)c4)nc23)c1 [Example C085, 5-((8-(3-acrylamidophenyl)quinazolin-2-yl)amino)-2-(4-methylpiperazin-1-yl)benzamide] |  |  |  |  | < 100 |  |  | < 100 | > 500 | 100 to 500 | < 50 |  |  | > 500 | < 100 |
| C=CC(=O)Nc1cccc(-c2c(F)ccc3cnc(Nc4ccc(N5CCN(CCF)CC5)cc4)nc23)c1 [Example C088, N-(3-(7-fluoro-2-((4-(4-(2-fluoroethyl)piperazin-1-yl)phenyl)amino)quinazolin-8-yl)phenyl)acrylamide] |  |  |  |  | < 100 |  |  | < 100 | > 500 | > 500 | > 50 |  | > 50 | > 500 |  |
| C=CC(=O)Nc1cccc(-c2cccc3cnc(Nc4ccc(NC5CN(CCO)C5)cc4)nc23)c1 [Example C099, N-(3-(2-((4-((1-(2-hydroxyethyl)azetidin-3-yl)amino)phenyl)amino)quinazolin-8-yl)phenyl)acrylamide] |  |  |  |  | < 100 |  |  | < 100 | > 500 | 100 to 500 | > 50 | < 100 | > 50 | > 500 | < 100 |
